The target in this assay is T1, pyruvate dehydrogenase complex (PDHC).
T1 construct: gene PDHA1; native mitochondrial complex isolated from porcine heart; with PDHB (E1 beta) and the other subunits of the complex
Briefly: spectrophotometric PDHC kinetics at […] nm, Lineweaver-Burk, Ki from the shift of Km for TPP. The note with it: read-out: Kinetic parameters / Ki. The class given is biochemical, Sus scrofa.

The results in this text go back to publication PMC7671598, “Differences in the efficiency of 3-deazathiamine and oxythiamine pyrophosphates as inhibitors of pyruvate dehydrogenase complex and growth of HeLa cells in vitro” (Journal of Enzyme Inhibition and Medicinal Chemistry, 2020).

Turning to `Cc1ncc(Cc2csc(CCOP(=O)(O)OP(=O)(O)O)c2C)c(N)n1` [compound 15, 3-deazathiamine pyrophosphate], the Ki is 2.6 ± 0.9 nM. The result for `Cc1ncc(C[n+]2csc(CCOP(=O)(O)OP(=O)(O)O)c2C)c(O)n1` [compound 18, oxythiamine pyrophosphate] reads 25 ± 15 nM.
